Experimental data from article PMC11401813, “Grewiifopenes A–K, bioactive clerodane diterpenoids from Casearia grewiifolia Vent” (Natural Products and Bioprospecting, 2024).
Values after ≈ are worked out from the molar mass of the structure shown. Where two headings read alike, the source gives them in different places.

Tests used:
[1] = tested on: HeLa (cervical carcinoma); experiment: Cytotoxicity, MTT assay, HeLa; assay type: cell-based, human; conditions: HeLa cell line, MTT, mean ± s.d. (n = 3); for IC50: read-out: IC50, HeLa
Method: (§1) The in vitro cytotoxicity assay toward a panel of human cancer cell lines of several clerodane diterpenoids has been well investigated. Thus, the isolates in adequate amounts were tested against MOLT-3 (acute lymphoblastic leukemia), HuCCA-1 (cholangiocarcinoma), HepG2 (hepatocellular carcinoma), A549 (lung adenocarcinoma), HeLa (cervical carcinoma), and MDA-MB-231 (triple negative breast cancer) cancer cell lines using the MTT and XTT methods. Doxorubicin and etoposide were used as positive controls.
(§2) The MTT (3-(4,5-dimethylthiazol-2-yl)-2,5-diphenyltetrazolium bromide) assay was employed for the cytotoxic evaluation against five human cancer cell lines, including HepG2, A549, MDA-MB-231, HeLa, and HuCCA-1, while the XTT (2,3-bis-(2-methoxy-4-nitro-5-sulphenyl)-(2H)-tetrazolium-5-carboxanilide) method was used for MOLT-3 cancer cell.

[2] = tested on: A549 (lung adenocarcinoma); experiment: Cytotoxicity, MTT assay, A549; assay type: cell-based, human; conditions: mean ± s.d. (n = 3)
Method: as §1, §2

[3] = tested on: HuCCA-1 (cholangiocarcinoma); experiment: Cytotoxicity, MTT assay, HuCCA-1; assay type: cell-based, human; conditions: MTT, mean ± s.d. (n = 3), read-out: IC50, HuCCA-1
Method: as §1, §2

[4] = tested on: MOLT-3 (acute lymphoblastic leukemia); experiment: Cytotoxicity, XTT method, MOLT-3; assay type: cell-based; conditions: Homo sapiens; MOLT-3 cell line; XTT; mean ± s.d. (n = 3); read-out: IC50, MOLT-3
Method: as §1, §2

[5] = tested on: Staphylococcus epidermidis (ATCC 12228); experiment: Antibacterial broth microdilution (MIC/MBC), S. epidermidis; assay type: cell-based; conditions: ATCC12228
Method: (§3) In addition, the isolates were also evaluated for their antibacterial activity towards three strains including Bacillus cereus (ATCC 11778), Staphylococcus aureus (ATCC 6538) and Staphylococcus epidermidis (ATCC 12228) using penicillin G and gentamicin as the antibiotic controls (Table 5). […] Finally, the inhibitory activity of aromatase by using a CYP19 screening kit was investigated. The aromatase (also called estrogen synthase) is responsible for converting the non-aromatic ring A of androgens to estrogens, which are related to the proliferation of breast cancer cells.
(§4) The tested strains, Staphylococcus aureus (S. aureus) ATCC6538, Staphylococcus epidermidis (S. epidermidis) ATCC12228, and Bacillus cereus (B. cereus) ATCC11778 were obtained from the American Type Culture Collection (ATCC).
(§5) All tested species were grown on Mueller Hinton Agar (MHA) and incubated at 37 °C for 18–24 h. The bacterial colonies suspension in sterile normal saline was diluted until they reached a 1 × 10^6 CFC/mL concentration, which was then compared to the McFarland scale. This step provided a standard bacterial suspension (1 × 10^6 CFU/mL), which was used for the following assays.
(§6) The broth microdilution technique was used for the MIC and MBC determination, which was expressed according to Clinical and Laboratory Standards Institute (CLSI) standard M07 guideline. The compounds were prepared as a stock solution by dissolving in dimethyl sulfoxide (DMSO) with the concentration ranging from 0.195 to 200 µg/mL. DMSO and penicillin G or gentamicin were used as normal and standard drug control. […] Three replicates were performed for each experiment.

[6] = tested on: Bacillus cereus (ATCC 11778); experiment: Antibacterial broth microdilution (MIC/MBC), B. cereus; assay type: cell-based; conditions: Bacillus cereus, ATCC11778
Method: as §3, §4, §5, §6

[7] = tested on: HepG2 (hepatocellular carcinoma); experiment: Cytotoxicity, MTT assay, HepG2; assay type: cell-based, human; conditions: MTT, mean ± s.d. (n = 3), read-out: IC50, HepG2
Method: as §1, §2

[8] = tested on: MDA-MB-231 (triple negative breast cancer); experiment: Cytotoxicity, MTT assay, MDA-MB-231; assay type: cell-based, human; conditions: MTT, mean ± s.d. (n = 3), read-out: IC50, MDA-MB-231
Method: as §1, §2

[9] = tested on: Staphylococcus aureus (ATCC 6538); experiment: Antibacterial broth microdilution (MIC/MBC), S. aureus; assay type: cell-based; conditions: ATCC6538
Method: as §3, §4, §5, §6

aromatase (CYP19) = target: T1, aromatase (CYP19) (Homo sapiens, UniProt P11511); experiment: Aromatase (CYP19) inhibition assay; assay type: biochemical; conditions: for inhibition at 12.5 µM: at a concentration of 12.5 µM; for Aromatase inhibitory activity (in words): at the concentration up to 12.15 µM
T1 construct: purchased
T1 sequence (P11511 1-503): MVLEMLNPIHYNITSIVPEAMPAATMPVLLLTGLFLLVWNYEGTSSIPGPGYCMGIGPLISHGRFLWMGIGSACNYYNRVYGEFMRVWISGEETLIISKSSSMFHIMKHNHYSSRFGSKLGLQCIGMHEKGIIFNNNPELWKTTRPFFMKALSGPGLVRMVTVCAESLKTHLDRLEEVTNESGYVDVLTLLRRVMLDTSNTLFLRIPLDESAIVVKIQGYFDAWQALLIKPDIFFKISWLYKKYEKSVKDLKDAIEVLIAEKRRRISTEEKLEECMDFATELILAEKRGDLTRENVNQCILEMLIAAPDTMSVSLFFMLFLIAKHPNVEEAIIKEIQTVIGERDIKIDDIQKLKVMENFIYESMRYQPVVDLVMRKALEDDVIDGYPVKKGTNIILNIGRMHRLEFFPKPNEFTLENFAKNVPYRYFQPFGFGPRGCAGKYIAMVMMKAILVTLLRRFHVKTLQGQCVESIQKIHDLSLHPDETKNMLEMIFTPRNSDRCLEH
Method: as §3
The aromatase assay used a method previously designed by Stresser and co-workers.

[10] = Homo sapiens, A549, A549 cell line
[11] = Homo sapiens, HuCC-A1, HuCCA-1 cell line
[12] = Homo sapiens, HepG2, HepG2 cell line
[13] = Homo sapiens, MDA-MB-231, MDA-MB-231 cell line

MIC [5] [µg/mL] | MIC [6] [µg/mL] | MIC [9] [µg/mL] | inhibition at 12.5 µM (aromatase (CYP19)) [%] | Aromatase inhibitory activity (in words) (aromatase (CYP19)) | SMILES | IC50 ([1]; Homo sapiens, HeLa) [µM] | IC50 [2, 10] [µM] | IC50 [3, 11] [µM] | IC50 [4] [nM] | MBC [5] [µg/mL] | MBC [6] [µg/mL] | IC50 [7, 12] [µM] | IC50 [8, 13] [µM] | MBC [9] [µg/mL] | IC50, HeLa [1] | IC50 [1] [µM] | IC50 ([3]; HuCCA-1 cell line) [µM] | IC50 ([2]; A549 cell line) [µM] | IC50 ([7]; HepG2 cell line) [µM] | IC50 ([8]; MDA-MB-231 cell line) [µM]
> 200 | 100 (≈ 169 µM) | > 200 |  |  | C=CC(=C)CC[C@]1(C)[C@H](C)[C@@H](OC(C)=O)[C@H](OC)[C@@]23C(=C[C@H](OC(=O)CC(C)C)C[C@@H]12)[C@@H](OC(C)=O)O[C@H]3OC(C)=O [Compound 2, Grewiifopene B] | 8.8 ± 0.9 | 7.8 ± 0.5 | 8.7 ± 1.1 | 2700 ± 400 | > 200 | > 200 | 37.1 ± 4.1 | 9.3 ± 0.4 | > 200 |  |  |  |  |  | 
> 200 | > 200 | > 200 | 15 | did not show activity | C=CC(=C)CC[C@]1(C)[C@H](C)[C@@H](OC(C)=O)[C@H](OC(C)=O)[C@@]23C(=C[C@H](OC(=O)CC(C)C)C[C@@H]12)[C@@H](OC(C)=O)O[C@H]3OC(C)=O [Compound 3, Grewiifopene C] | 5.3 ± 0.1 | 5.1 ± 1.1 | 3.9 ± 0.2 | 2700 ± 300 | > 200 | > 200 | 13.2 ± 0.5 | 8.4 ± 0.1 | > 200 |  |  |  |  |  | 
 |  |  | 18 | did not show activity | C=CC(=C)CC[C@]1(C)[C@H](C)C[C@H](OC)[C@@]23C(=C[C@H](OC(=O)[C@@H](C)CC)C[C@@H]12)[C@@H](OC(C)=O)O[C@H]3OC(C)=O [Compound 5, corymbulosin N] | 5.6 ± 0.3 | 5 ± 0.9 | 5.3 ± 0.1 | 3400 ± 400 |  |  | 10 ± 0.5 | 8.7 ± 0.2 |  |  |  |  |  |  | 
 |  |  |  |  | C=CC(=C)CC[C@]1(C)[C@H](C)C[C@H](OC)[C@@]23C(=C[C@H](OC(=O)C(C)C)C[C@@H]12)[C@@H](OC(C)=O)O[C@H]3OC(C)=O [Compound 6, corymbulosin K] | 7.3 ± 0.3 | 5.8 ± 0.8 | 5.6 ± 1.2 | 3200 ± 200 |  |  | 11.8 ± 1.1 | 10.2 ± 0.6 |  |  |  |  |  |  | 
> 200 | 12.5 (≈ 24.8 µM) | > 200 |  |  | C=CC(=C)CC[C@]1(C)[C@H](C)C[C@H](OC)[C@@]23C(=C[C@H](OC(=O)CC(C)C)C[C@@H]12)[C@@H](OC)O[C@H]3OC(C)=O [Compound 10, kurzipene A] | 10.7 ± 0.6 | 8.2 ± 0.8 | 7.5 ± 0.2 | 5000 ± 1400 | > 200 | 12.5 (≈ 24.8 µM) | 13 ± 1 | 10.4 ± 0.2 | > 200 |  |  |  |  |  | 
 |  |  | 0 | did not show activity | C=CC(=C)CC[C@]1(C)[C@H](C)[C@@H](OC(=O)CC(C)C)[C@H](O)[C@@]23C(=C[C@H](OC(=O)CC(C)C)C[C@@H]12)[C@@H](OC(C)=O)O[C@H]3OC(C)=O [Compound 12, Grewiifopene E] | 3.8 ± 0.6 | 3.6 ± 0.04 | 4.4 ± 0.4 | 1700 ± 400 |  |  | 8.9 ± 0.3 | 7.6 ± 0.9 |  |  |  |  |  |  | 
 |  |  |  |  | C=CC(=C)CCC1(C)C(C)C(OC(=O)C=Cc2ccc(O)cc2)C(O)C23C(=CC(OC(=O)CC(C)C)CC12)C(OC)OC3OC(C)=O (stereo not shown) [Compound 13, Grewiifopene F] |  | 30.6 ± 3.9 | 41.4 ± 6.1 | 3700 ± 1000 |  |  | 44.2 ± 4.4 | 37 ± 5.1 |  | I^a (Inactive for cytotoxicity with < 50% inhibition at a concentration of 50 µg/mL) |  |  |  |  | 
 |  |  |  |  | C=CC(=C)CC[C@]1(C)[C@H](C)[C@@H](OC(=O)/C=C/c2ccc(O)cc2)[C@H](O)[C@@]23C(=C[C@H](OC(=O)CC(C)C)C[C@@H]12)[C@H](OC(C)=O)O[C@H]3OC(C)=O [Compound 14, Grewiifopene G] | 2.4 ± 0.2 | 2.6 ± 0.1 | 1.8 ± 0.2 | 1300 ± 500 |  |  | 7.3 ± 0.6 | 2 ± 0.1 |  |  |  |  |  |  | 
> 200 | > 200 | > 200 |  |  | C=CC(C)=CCC1(C)C(C)C(OC(C)=O)C(OC(C)=O)C23C(=CC(OC(=O)CC(C)C)CC12)C(OC(C)=O)OC3OC(C)=O (stereo not shown) [Compound 15, Grewiifopene H] | 8.8 ± 0.6 | 9.2 ± 1.2 | 6.6 ± 0.6 | 3100 ± 400 | > 200 | > 200 | 38.5 ± 2.8 | 9.1 ± 0.3 | > 200 |  |  |  |  |  | 
 |  |  |  |  | C=CC(C)=CCC1(C)C(C)C(OC(=O)C=Cc2ccc(O)cc2)C(O)C23C(=CC(OC(=O)CC(C)C)CC12)C(OC(C)=O)OC3OC(C)=O (stereo not shown) [Compound 17, Grewiifopene J] |  | 2.4 ± 0.2 |  | 1000 ± 100 |  |  | 7.1 ± 0.2 | 2 ± 0.1 |  |  | 2.8 ± 0.03 | 0.4 ± 0.03 |  |  | 
 |  |  |  |  | C=CC(C)=CCC1(C)C(C)C(OC(=O)C=Cc2ccc(O)cc2)C(O)C23C(=CC(OC(=O)CC(C)C)CC12)C(OC(C)=O)OC3OC(C)=O (stereo not shown) [Compound 18, Grewiifopene K] |  |  |  |  |  |  |  |  |  |  | 6.1 ± 0.3 | 1.6 ± 0.2 | 2.2 ± 0.2 | 8.9 ± 1.2 | 2.5 ± 0.1
 |  |  |  |  | COc1cccc2c1C(=O)c1c(O)c3c(c(O)c1C2=O)C[C@@](O)(C(=O)CO)C[C@@H]3O[C@H]1C[C@H](N)[C@H](O)[C@H](C)O1 [Doxorubicin, reference compound] | 0.32 ± 0.01 | 0.38 ± 0.02 | 0.83 ± 0.07 | 10 ± 2 |  |  | 0.52 ± 0.1 | 2.09 ± 0.1 |  |  |  |  |  |  | 
 |  |  |  |  | COc1cc([C@@H]2c3cc4c(cc3[C@@H](O[C@@H]3O[C@@H]5CO[C@@H](C)O[C@H]5[C@H](O)[C@H]3O)[C@H]3COC(=O)[C@H]23)OCO4)cc(OC)c1O [Etoposide, reference compound] |  |  |  | 22 ± 4 |  |  | 33.5 ± 2.55 |  |  |  |  |  |  |  | 
0.024 (≈ 0.0503 µM) | 0.048 (≈ 0.101 µM) | 0.024 (≈ 0.0503 µM) |  |  | CNC(C)C1CCC(N)C(OC2C(N)CC(N)C(OC3OCC(C)(O)C(NC)C3O)C2O)O1 (stereo not shown) [Gentamicin, reference compound] |  |  |  |  | 0.024 (≈ 0.0503 µM) | 0.048 (≈ 0.101 µM) |  |  | 0.024 (≈ 0.0503 µM) |  |  |  |  |  | 
0.195 (≈ 0.583 µM) | 3.12 (≈ 9.35 µM) | 0.00076 (≈ 0.00227 µM) |  |  | CC1(C)S[C@@H]2[C@H](NC(=O)Cc3ccccc3)C(=O)N2[C@H]1C(=O)O [Penicillin G, reference compound] |  |  |  |  | 1.56 (≈ 4.67 µM) | 3.12 (≈ 9.35 µM) |  |  | 0.003 (≈ 0.00897 µM) |  |  |  |  |  | 
